The record followed here is ChEMBL document CHEMBL1133049, “Expeditious synthesis and cytotoxic activity of new cyanoindolo[3,2-c]quinolines and benzimidazo[1,2-c]quinazolines” (Bioorg Med Chem Lett, 2000).

Assay [1] concerns L1210. Kind of assay: Antiproliferative activity of compound was assessed using the murine L1210 leukemia cell line. Format: functional, cell-based. Particulars: Mus musculus.
Assay [2] relates to L1210. Kind of assay: Percent perturbations evaluated at 10 uM induced on L1210 cells in the >G2+M (8N) phase of cell cycle; inactive. Format: functional, cell-based. As to conditions: Mus musculus.
The test system of assay [3] is L1210. Kind of assay: Percent perturbations evaluated at 10 uM induced on L1210 cells in the G2+M phase of cell cycle. Format: functional, Mus musculus.
The subject of another assay is HT-29. Kind of assay: Cytotoxicity of compound was evaluated on the HT-29 cell line. Format: functional, cell-based. Particulars: Homo sapiens.
Assay [4] concerns L1210. Kind of assay: Percent perturbations evaluated at 10 uM induced on L1210 cells in the >G2+M (8N) phase of cell cycle. The format is functional, Mus musculus.

Active and inactive are the calls of the source. The rule behind the calls is not given here. A value given as a limit tells only on which side of the number the result lay.

Broadly, the IC50 is the concentration that inhibits the measured activity by half. A low value points to inhibition by little substance.

Compound `N#Cc1[nH]c2ccccc2c2nc3ccccc3c1-2` returned an IC50 with L1210 [1] greater than 100 µM.
Still for that read-out and setting: the figure for `Cn1c2ccccc2c2c(C#N)nc3ccccc3c21` is 58.8 µM.
As to `N#Cc1nc2ccccc2c2nc3ccccc3n12`, in the assay with L1210 [2], the Perturbations entry is “inactive”. For the same compound, the Perturbations with L1210 [3] is listed as 61%. Also, the IC50 was found to be 5.4 µM in the assay with L1210 [1] and 5.2 µM with HT-29.
In the assay on L1210 [1], `c1ccc2c(c1)ncn1c3ccccc3nc21` registered an IC50 greater than 100 µM.
As to `CN(C)CCn1c2ccccc2c2c(C#N)nc3ccccc3c21`, the Perturbations in the assay on L1210 [4] stood at 21%; with L1210 [3], 50%. The IC50 was determined as 3.1 µM with L1210 [1] and 0.68 µM with HT-29.
